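Cultured in 96-well plates, cells were exposed to test compound for 48 hours across five concentrations. Definition used: TGI = concentration required for complete inhibition of growth.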
Experiments:
Assay in all cases: NCI anticancer screen, dose series, 48 h
NCI/ADR-RES ovarian = tested on: NCI/ADR-RES ovarian
A498 renal = tested on: A498 renal
MDA-N = tested on: MDA-N
MALME-3M melanoma = tested on: MALME-3M melanoma
HCT-116 colon = tested on: HCT-116 colon
SF-295 CNS = tested on: SF-295 CNS
K-562 leukemia = tested on: K-562 leukemia
CAKI-1 renal = tested on: CAKI-1 renal
NCI-H522 lung = tested on: NCI-H522 lung
SNB-75 CNS = tested on: SNB-75 CNS
MOLT-4 leukemia = tested on: MOLT-4 leukemia
SNB-19 CNS = tested on: SNB-19 CNS
TK-10 renal = tested on: TK-10 renal
HCT-15 colon = tested on: HCT-15 colon
OVCAR-3 ovarian = tested on: OVCAR-3 ovarian
NCI-H460 lung = tested on: NCI-H460 lung
SR leukemia = tested on: SR leukemia
U251 CNS = tested on: U251 CNS
SK-MEL-2 melanoma = tested on: SK-MEL-2 melanoma
A549 NSCLC = tested on: A549 NSCLC
KM12 colon = tested on: KM12 colon
PC-3 prostate = tested on: PC-3 prostate
NCI-H226 lung = tested on: NCI-H226 lung
786-0 renal = tested on: 786-0 renal
SW-620 colon = tested on: SW-620 colon
UO-31 renal = tested on: UO-31 renal
MDA-MB-435 = tested on: MDA-MB-435
MDA-MB-231 breast = tested on: MDA-MB-231 breast
OVCAR-4 ovarian = tested on: OVCAR-4 ovarian
IGROV1 ovarian = tested on: IGROV1 ovarian
SK-MEL-28 melanoma = tested on: SK-MEL-28 melanoma
EKVX NSCLC = tested on: EKVX NSCLC
SF-268 CNS = tested on: SF-268 CNS
LOX IMVI melanoma = tested on: LOX IMVI melanoma
SK-OV-3 ovarian = tested on: SK-OV-3 ovarian
M14 melanoma = tested on: M14 melanoma
SN12C renal = tested on: SN12C renal
HS 578T breast = tested on: HS 578T breast
DU-145 prostate = tested on: DU-145 prostate
HOP-62 NSCLC = tested on: HOP-62 NSCLC
UACC-257 melanoma = tested on: UACC-257 melanoma
CCRF-CEM leukemia = tested on: CCRF-CEM leukemia
SK-MEL-5 melanoma = tested on: SK-MEL-5 melanoma
SF-539 CNS = tested on: SF-539 CNS
MCF7 breast = tested on: MCF7 breast
HT29 colon = tested on: HT29 colon
BT-549 breast = tested on: BT-549 breast
OVCAR-8 ovarian = tested on: OVCAR-8 ovarian
HL-60(TB) leukemia = tested on: HL-60(TB) leukemia
T-47D breast = tested on: T-47D breast
RPMI-8226 leukemia = tested on: RPMI-8226 leukemia
UACC-62 melanoma = tested on: UACC-62 melanoma
RXF 393 renal = tested on: RXF 393 renal
OVCAR-5 ovarian = tested on: OVCAR-5 ovarian
COLO 205 colon = tested on: COLO 205 colon
NCI-H23 lung = tested on: NCI-H23 lung
HCC-2998 colon = tested on: HCC-2998 colon
HOP-92 NSCLC = tested on: HOP-92 NSCLC

Structure (SMILES): O=C(NNC(=O)c1ccccc1O)c1cccs1
- TGI (NCI/ADR-RES ovarian): > 100 µM
- TGI (A498 renal): > 100 µM
- TGI (MDA-N): > 100 µM
- TGI (MALME-3M melanoma): > 100 µM
- TGI (HCT-116 colon): > 100 µM
- TGI (SF-295 CNS): > 100 µM
- TGI (K-562 leukemia): > 100 µM
- TGI (CAKI-1 renal): > 100 µM
- TGI (NCI-H522 lung): 64 µM
- TGI (SNB-75 CNS): > 100 µM
- TGI (MOLT-4 leukemia): > 100 µM
- TGI (SNB-19 CNS): > 100 µM
- TGI (TK-10 renal): > 100 µM
- TGI (HCT-15 colon): > 100 µM
- TGI (OVCAR-3 ovarian): > 100 µM
- TGI (NCI-H460 lung): > 100 µM
- TGI (SR leukemia): > 100 µM
- TGI (U251 CNS): > 100 µM
- TGI (SK-MEL-2 melanoma): > 100 µM
- TGI (A549 NSCLC): > 100 µM
- TGI (KM12 colon): > 100 µM
- TGI (PC-3 prostate): > 100 µM
- TGI (NCI-H226 lung): > 100 µM
- TGI (786-0 renal): > 100 µM
- TGI (SW-620 colon): > 100 µM
- TGI (UO-31 renal): > 100 µM
- TGI (MDA-MB-435): > 100 µM
- TGI (MDA-MB-231 breast): > 100 µM
- TGI (OVCAR-4 ovarian): > 100 µM
- TGI (IGROV1 ovarian): > 100 µM
- TGI (SK-MEL-28 melanoma): > 100 µM
- TGI (EKVX NSCLC): > 100 µM
- TGI (SF-268 CNS): > 100 µM
- TGI (LOX IMVI melanoma): > 100 µM
- TGI (SK-OV-3 ovarian): > 100 µM
- TGI (M14 melanoma): > 100 µM
- TGI (SN12C renal): > 100 µM
- TGI (HS 578T breast): > 100 µM
- TGI (DU-145 prostate): > 100 µM
- TGI (HOP-62 NSCLC): > 100 µM
- TGI (UACC-257 melanoma): > 100 µM
- TGI (CCRF-CEM leukemia): > 100 µM
- TGI (SK-MEL-5 melanoma): > 100 µM
- TGI (SF-539 CNS): > 100 µM
- TGI (MCF7 breast): > 100 µM
- TGI (HT29 colon): > 100 µM
- TGI (BT-549 breast): > 100 µM
- TGI (OVCAR-8 ovarian): > 100 µM
- TGI (HL-60(TB) leukemia): > 100 µM
- TGI (T-47D breast): > 100 µM
- TGI (RPMI-8226 leukemia): > 100 µM
- TGI (UACC-62 melanoma): > 100 µM
- TGI (RXF 393 renal): > 100 µM
- TGI (OVCAR-5 ovarian): > 100 µM
- TGI (COLO 205 colon): > 100 µM

Structure (SMILES): CC#CC#C/C=C1/C=CC2(CCCCO2)O1 (centres undefined)
- TGI (NCI/ADR-RES ovarian): > 100 µM
- TGI (A498 renal): > 100 µM
- TGI (NCI-H23 lung): > 100 µM
- TGI (MDA-N): > 100 µM
- TGI (MALME-3M melanoma): > 100 µM
- TGI (HCT-116 colon): > 100 µM
- TGI (SF-295 CNS): > 100 µM
- TGI (K-562 leukemia): > 100 µM
- TGI (CAKI-1 renal): > 100 µM
- TGI (NCI-H522 lung): > 100 µM
- TGI (SNB-75 CNS): > 100 µM
- TGI (MOLT-4 leukemia): > 100 µM
- TGI (SNB-19 CNS): > 100 µM
- TGI (TK-10 renal): > 100 µM
- TGI (HCT-15 colon): > 100 µM
- TGI (NCI-H460 lung): > 100 µM
- TGI (SR leukemia): > 100 µM
- TGI (U251 CNS): > 100 µM
- TGI (SK-MEL-2 melanoma): > 100 µM
- TGI (A549 NSCLC): > 100 µM
- TGI (HCC-2998 colon): > 100 µM
- TGI (KM12 colon): > 100 µM
- TGI (PC-3 prostate): > 100 µM
- TGI (NCI-H226 lung): > 100 µM
- TGI (786-0 renal): > 100 µM
- TGI (SW-620 colon): > 100 µM
- TGI (UO-31 renal): > 100 µM
- TGI (MDA-MB-435): > 100 µM
- TGI (MDA-MB-231 breast): > 100 µM
- TGI (OVCAR-4 ovarian): > 100 µM
- TGI (IGROV1 ovarian): > 100 µM
- TGI (SK-MEL-28 melanoma): > 100 µM
- TGI (EKVX NSCLC): > 100 µM
- TGI (SF-268 CNS): > 100 µM
- TGI (LOX IMVI melanoma): > 100 µM
- TGI (SK-OV-3 ovarian): > 100 µM
- TGI (M14 melanoma): > 100 µM
- TGI (SN12C renal): > 100 µM
- TGI (HS 578T breast): > 100 µM
- TGI (DU-145 prostate): > 100 µM
- TGI (UACC-257 melanoma): > 100 µM
- TGI (CCRF-CEM leukemia): 53.9 µM
- TGI (SK-MEL-5 melanoma): > 100 µM
- TGI (SF-539 CNS): > 100 µM
- TGI (MCF7 breast): > 100 µM
- TGI (HT29 colon): > 100 µM
- TGI (BT-549 breast): > 100 µM
- TGI (OVCAR-8 ovarian): > 100 µM
- TGI (HL-60(TB) leukemia): 47.4 µM
- TGI (T-47D breast): > 100 µM
- TGI (UACC-62 melanoma): > 100 µM
- TGI (HOP-92 NSCLC): > 100 µM
- TGI (OVCAR-5 ovarian): > 100 µM
- TGI (COLO 205 colon): > 100 µM
